# Results taken from patent US9446039B2, “Aminoheteroaryl compounds as MTH1 inhibitors” (CEMM—FORSCHUNGSZENTRUM FÜR MOLEKULARE MEDIZIN GMBH, priority 2012, dated 2016).
# Experiments:
# Format in all cases: binding
# [1] = target: T1, SW480 colon carcinoma cells lysate proteins (Homo sapiens, UniProt P21980); conditions: PreyGene TGM2
# T1 sequence (P21980 1-687): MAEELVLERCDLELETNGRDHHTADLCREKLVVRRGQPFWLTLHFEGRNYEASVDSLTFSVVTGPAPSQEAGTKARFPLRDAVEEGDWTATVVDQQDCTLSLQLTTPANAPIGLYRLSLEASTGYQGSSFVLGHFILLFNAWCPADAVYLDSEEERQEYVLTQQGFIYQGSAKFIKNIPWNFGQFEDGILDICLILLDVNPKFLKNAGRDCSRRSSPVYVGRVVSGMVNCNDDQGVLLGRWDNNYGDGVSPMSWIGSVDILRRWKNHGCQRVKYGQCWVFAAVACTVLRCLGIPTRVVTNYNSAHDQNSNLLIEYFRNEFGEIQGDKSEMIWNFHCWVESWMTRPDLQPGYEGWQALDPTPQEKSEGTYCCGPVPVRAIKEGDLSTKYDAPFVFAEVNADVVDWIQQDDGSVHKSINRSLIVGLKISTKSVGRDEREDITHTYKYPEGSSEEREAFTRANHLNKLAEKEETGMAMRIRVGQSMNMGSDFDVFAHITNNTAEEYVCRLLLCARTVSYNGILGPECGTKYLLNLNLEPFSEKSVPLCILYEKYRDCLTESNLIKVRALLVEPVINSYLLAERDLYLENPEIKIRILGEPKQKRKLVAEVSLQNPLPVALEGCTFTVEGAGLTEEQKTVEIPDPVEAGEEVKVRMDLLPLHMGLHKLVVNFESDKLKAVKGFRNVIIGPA
# [2] = target: SW480 colon carcinoma cells lysate proteins (Homo sapiens, UniProt Q14152); conditions: PreyGene EIF3A; SW480 cells
# SW480 colon carcinoma cells lysate proteins (Homo sapiens, UniProt Q14152), sequence (Q14152 whole entry): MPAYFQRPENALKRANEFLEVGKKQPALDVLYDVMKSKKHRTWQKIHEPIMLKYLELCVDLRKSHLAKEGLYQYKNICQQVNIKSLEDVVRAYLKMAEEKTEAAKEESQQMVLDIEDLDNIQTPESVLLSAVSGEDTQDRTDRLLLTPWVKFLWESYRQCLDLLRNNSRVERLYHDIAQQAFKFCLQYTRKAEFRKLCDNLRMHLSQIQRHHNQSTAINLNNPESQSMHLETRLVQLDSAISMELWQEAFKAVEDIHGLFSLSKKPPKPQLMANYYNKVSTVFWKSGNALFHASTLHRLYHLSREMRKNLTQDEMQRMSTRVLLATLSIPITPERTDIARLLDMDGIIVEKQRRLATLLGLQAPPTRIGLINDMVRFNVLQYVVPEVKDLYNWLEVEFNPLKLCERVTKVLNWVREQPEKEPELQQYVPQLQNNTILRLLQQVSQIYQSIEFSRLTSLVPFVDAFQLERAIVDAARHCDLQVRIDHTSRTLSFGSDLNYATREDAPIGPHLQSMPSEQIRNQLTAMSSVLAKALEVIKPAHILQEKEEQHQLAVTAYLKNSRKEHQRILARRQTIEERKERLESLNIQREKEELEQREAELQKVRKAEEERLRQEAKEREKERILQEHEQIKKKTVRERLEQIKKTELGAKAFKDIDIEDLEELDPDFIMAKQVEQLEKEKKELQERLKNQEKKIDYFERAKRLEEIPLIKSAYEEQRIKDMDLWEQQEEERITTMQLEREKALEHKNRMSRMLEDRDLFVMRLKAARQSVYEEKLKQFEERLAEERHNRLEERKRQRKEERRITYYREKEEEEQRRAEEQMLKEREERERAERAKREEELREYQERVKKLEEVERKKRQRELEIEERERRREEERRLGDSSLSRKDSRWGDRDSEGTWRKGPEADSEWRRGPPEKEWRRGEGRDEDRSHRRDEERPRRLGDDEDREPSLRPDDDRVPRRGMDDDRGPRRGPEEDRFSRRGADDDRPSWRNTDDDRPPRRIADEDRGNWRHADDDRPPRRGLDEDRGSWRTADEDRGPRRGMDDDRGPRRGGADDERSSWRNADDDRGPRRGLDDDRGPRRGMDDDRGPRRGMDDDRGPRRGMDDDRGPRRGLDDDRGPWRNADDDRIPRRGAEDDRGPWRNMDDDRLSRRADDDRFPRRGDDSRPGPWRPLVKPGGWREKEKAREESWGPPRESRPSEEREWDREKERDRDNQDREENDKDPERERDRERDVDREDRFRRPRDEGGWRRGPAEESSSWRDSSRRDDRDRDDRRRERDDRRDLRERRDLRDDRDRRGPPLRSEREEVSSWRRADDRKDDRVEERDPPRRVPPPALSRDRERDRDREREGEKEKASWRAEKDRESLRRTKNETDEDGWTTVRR
# [3] = target: T2, SW480 colon carcinoma cells lysate proteins (Homo sapiens, UniProt Q14847); conditions: PreyGene LASP1; SW480 cells
# T2 sequence (Q14847 1-261): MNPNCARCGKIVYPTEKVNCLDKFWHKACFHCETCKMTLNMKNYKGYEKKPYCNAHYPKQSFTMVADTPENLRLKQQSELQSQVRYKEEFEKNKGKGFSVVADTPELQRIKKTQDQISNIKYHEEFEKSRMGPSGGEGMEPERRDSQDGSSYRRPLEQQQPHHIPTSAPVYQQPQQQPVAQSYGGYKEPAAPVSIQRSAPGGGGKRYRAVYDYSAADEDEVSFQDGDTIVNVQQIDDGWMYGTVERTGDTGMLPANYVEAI
# [4] = target: SW480 colon carcinoma cells lysate proteins (Homo sapiens, UniProt Q13561); conditions: PreyGene DCTN2
# SW480 colon carcinoma cells lysate proteins (Homo sapiens, UniProt Q13561), sequence (Q13561 whole entry): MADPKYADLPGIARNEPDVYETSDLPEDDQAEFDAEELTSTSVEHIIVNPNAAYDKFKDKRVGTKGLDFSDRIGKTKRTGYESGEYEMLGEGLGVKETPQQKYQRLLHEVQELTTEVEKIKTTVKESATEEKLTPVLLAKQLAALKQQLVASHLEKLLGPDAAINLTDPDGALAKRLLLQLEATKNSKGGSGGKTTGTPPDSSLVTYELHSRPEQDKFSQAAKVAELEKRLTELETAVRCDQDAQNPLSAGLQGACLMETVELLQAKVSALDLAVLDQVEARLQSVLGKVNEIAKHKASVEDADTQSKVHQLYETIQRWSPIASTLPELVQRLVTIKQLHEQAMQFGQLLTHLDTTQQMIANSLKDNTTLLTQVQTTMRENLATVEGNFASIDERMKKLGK
# [5] = target: T3, SW480 colon carcinoma cells lysate proteins (Homo sapiens, UniProt P55209); conditions: PreyGene NAP1L1
# T3 sequence (P55209 1-391): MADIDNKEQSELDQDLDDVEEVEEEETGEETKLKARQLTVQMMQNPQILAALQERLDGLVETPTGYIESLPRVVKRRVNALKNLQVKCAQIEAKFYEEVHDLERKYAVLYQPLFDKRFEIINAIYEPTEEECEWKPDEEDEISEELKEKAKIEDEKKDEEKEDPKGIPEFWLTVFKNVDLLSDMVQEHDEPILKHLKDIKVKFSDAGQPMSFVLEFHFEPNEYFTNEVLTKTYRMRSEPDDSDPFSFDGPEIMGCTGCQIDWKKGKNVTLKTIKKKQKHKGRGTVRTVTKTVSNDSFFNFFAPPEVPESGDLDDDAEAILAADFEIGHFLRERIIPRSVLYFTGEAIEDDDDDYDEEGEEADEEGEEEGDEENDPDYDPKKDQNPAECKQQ
# [6] = target: SW480 colon carcinoma cells lysate proteins (Homo sapiens, UniProt O00571); conditions: PreyGene DDX3X
# SW480 colon carcinoma cells lysate proteins (Homo sapiens, UniProt O00571), sequence (O00571 whole entry): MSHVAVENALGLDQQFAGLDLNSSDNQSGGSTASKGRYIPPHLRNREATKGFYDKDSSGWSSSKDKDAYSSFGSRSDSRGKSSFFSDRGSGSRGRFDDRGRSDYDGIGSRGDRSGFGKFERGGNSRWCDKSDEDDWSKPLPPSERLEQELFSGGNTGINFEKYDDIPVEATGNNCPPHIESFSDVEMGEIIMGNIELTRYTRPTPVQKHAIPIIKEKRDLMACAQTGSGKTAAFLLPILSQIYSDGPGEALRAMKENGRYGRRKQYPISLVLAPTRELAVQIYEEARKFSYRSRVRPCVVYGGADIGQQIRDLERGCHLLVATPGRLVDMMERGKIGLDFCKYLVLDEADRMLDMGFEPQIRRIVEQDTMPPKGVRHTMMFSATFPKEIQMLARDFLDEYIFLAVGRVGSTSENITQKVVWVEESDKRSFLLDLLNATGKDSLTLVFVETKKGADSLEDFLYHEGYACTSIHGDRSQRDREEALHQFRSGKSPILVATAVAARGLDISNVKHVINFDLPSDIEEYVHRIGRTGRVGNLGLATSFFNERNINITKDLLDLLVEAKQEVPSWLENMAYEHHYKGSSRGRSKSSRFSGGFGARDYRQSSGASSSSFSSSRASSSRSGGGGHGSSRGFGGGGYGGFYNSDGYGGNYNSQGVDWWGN
# [7] = target: T4, SW480 colon carcinoma cells lysate proteins (Homo sapiens, UniProt Q5XKE5); conditions: PreyGene KRT79; SW480 cells
# T4 sequence (Q5XKE5 1-535): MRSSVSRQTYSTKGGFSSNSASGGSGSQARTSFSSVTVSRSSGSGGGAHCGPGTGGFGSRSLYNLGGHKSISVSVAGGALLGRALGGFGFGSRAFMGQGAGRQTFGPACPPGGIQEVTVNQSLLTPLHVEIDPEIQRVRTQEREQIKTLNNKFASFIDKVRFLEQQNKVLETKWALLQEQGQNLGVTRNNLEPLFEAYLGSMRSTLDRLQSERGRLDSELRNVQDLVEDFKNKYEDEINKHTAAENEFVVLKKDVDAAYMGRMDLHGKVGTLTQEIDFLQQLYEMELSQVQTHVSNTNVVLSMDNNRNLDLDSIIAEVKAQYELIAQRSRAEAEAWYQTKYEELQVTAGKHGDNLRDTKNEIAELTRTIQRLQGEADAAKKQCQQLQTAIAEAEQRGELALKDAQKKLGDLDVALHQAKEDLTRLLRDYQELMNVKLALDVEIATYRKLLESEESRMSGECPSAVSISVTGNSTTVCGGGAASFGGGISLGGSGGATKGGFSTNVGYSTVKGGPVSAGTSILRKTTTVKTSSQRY
# [8] = target: SW480 colon carcinoma cells lysate proteins (Homo sapiens, UniProt Q06210); conditions: PreyGene GFPT1; SW480 cells
# SW480 colon carcinoma cells lysate proteins (Homo sapiens, UniProt Q06210), sequence (Q06210 whole entry): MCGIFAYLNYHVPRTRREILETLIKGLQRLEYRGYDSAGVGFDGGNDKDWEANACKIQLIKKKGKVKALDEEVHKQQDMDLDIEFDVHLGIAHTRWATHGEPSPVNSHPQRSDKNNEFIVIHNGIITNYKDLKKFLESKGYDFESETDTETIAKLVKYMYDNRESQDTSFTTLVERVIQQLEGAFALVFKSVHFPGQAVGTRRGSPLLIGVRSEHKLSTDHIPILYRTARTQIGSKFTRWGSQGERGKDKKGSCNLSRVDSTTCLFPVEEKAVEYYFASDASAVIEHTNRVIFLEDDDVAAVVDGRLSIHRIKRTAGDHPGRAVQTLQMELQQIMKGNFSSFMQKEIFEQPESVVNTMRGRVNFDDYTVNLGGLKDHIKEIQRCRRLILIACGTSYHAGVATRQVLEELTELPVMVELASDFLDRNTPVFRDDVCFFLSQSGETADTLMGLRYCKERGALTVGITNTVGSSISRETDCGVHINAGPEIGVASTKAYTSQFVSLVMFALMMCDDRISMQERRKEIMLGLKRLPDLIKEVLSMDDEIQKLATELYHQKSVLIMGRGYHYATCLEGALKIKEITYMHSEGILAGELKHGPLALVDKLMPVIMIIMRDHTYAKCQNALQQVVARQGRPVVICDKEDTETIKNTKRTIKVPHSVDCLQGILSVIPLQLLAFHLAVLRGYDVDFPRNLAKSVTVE
compound,measurement,setting,value
C[C@H](Oc1cc(-c2cnn(C3CCNCC3)c2)cnc1N)c1c(Cl)ccc(F)c1Cl [(5)-crizotinib],AvgP,[1],0.2455
same,SC.Exp. 1-1,[1],6
same,SC.Exp. 1-2,[1],5
same,SC.Exp. 2-1,[1],0
same,SC.Exp. 2-2,[1],0
same,Sum (SC.Exp.),[1],11
same,AvgP,[2],0
same,SC.Exp. 1-1,[2],9
same,SC.Exp. 1-2,[2],7
same,SC.Exp. 2-1,[2],7
same,SC.Exp. 2-2,[2],6
same,SC.Exp. Sum,[2],29
same,AvgP,[3],0
same,SC.Exp. 1-1,[3],0
same,SC.Exp. 1-2,[3],1
same,SC.Exp. 2-1,[3],0
same,SC.Exp. 2-2,[3],0
same,SC.Exp. Sum,[3],1
same,AvgP,[4],0.2964
same,SC.Exp. 1-1,[4],2
same,SC.Exp. 1-2,[4],3
same,SC.Exp. 2-1,[4],0
same,SC.Exp. 2-2,[4],0
same,Sum (SC.Exp.),[4],5
same,AvgP,[5],0.2244
same,SC.Exp. 1-1,[5],1
same,SC.Exp. 1-2,[5],2
same,SC.Exp. 2-1,[5],0
same,SC.Exp. 2-2,[5],0
same,Sum (SC.Exp.),[5],3
same,AvgP,[6],0.7764
same,SC.Exp. 1-1,[6],2
same,SC.Exp. 1-2,[6],2
same,SC.Exp. 2-1,[6],1
same,SC.Exp. 2-2,[6],2
same,Sum (SC.Exp.),[6],7
same,AvgP,[7],0
same,SC.Exp. 1-1,[7],0
same,SC.Exp. 1-2,[7],1
same,SC.Exp. 2-1,[7],0
same,SC.Exp. 2-2,[7],0
same,SC.Exp. Sum,[7],1
same,AvgP,[8],0
same,SC.Exp. 1-1,[8],1
same,SC.Exp. 1-2,[8],1
same,SC.Exp. 2-1,[8],0
same,SC.Exp. 2-2,[8],0
same,SC.Exp. Sum,[8],2
